Results taken from patent US20240384350A1, “METHODS OF TREATING CANCER WITH KINASE INHIBITORS” (BOARD OF REGENTS, THE UNIVERSITY OF TEXAS SYSTEM, priority 2021, published 2024).
Each block holds one compound with its values, some of them ahead of it.

Experiments:
Test in all cases: Ba/F3 drug screening, Cell Titer Glo, IC50 Mut/WT
Format in all cases: cell-based
EGFR K757R = biological target: T1, EGFR K757R (Homo sapiens, UniProt P00533, K757R)
T1 construct: expressed in transfected cells; host or cells: Ba/F3

EGFR G719S = biological target: T2, EGFR G719S (Homo sapiens, UniProt P00533, G719S)
T2 construct: expressed in transfected cells; host or cells: Ba/F3
Method: (§1) Data represent the ratio of the IC50 value for a given TKI for cells with a PACC EGFR mutation to the IC50 value for cells with wildtype EGFR.
(§2) Ba/F3 cell generation, drug screening, and IC50 approximations. Ba/F3 cells were obtained as a gift from Dr. Gordon Mills (MD Anderson Cancer Center), and maintained in RPMI (Sigma) containing 10% FBS, 1% penicillin/streptomycin, and 10 ng/ml recombinant mIL-3 (R&D Biosystems). To establish stable Ba/F3 cell lines, Ba/F3 cells were transduced with retroviruses containing mutant EGFR plasmids for 12-24 hours.
(§3) After 48-72 hours of transduction, 2 μg/ml puromycin (Invitrogen) was added to Ba/F3 cell lines in complete RPMI. To select for EGFR positive cell lines, cells were stained with PE-EGFR (Biolegend) and sorted by FACS. After sorting, EGFR positive cells were maintained in RPMI containing 10% FBS, 1% penicillin/streptomycin, and 1 ng/ml EGF to support cell viability. Drug screening was performed as previously described^41,42. Shortly, cells were plated in 384-well plates (Greiner Bio-One) at 2000-3000 cells per well in technical triplicate. Seven different concentrations of TKIs or DMSO vehicle were added to reach a final volume of 40 μL per well. After 72 hours, 11 μL of Cell Titer Glo (Promega) was added to each well. Plates were incubated for a minimum of 10 minutes, and bioluminescence was determined using a FLUOstar OPTIMA plate reader (BMG LABTECH). Raw bioluminescence values were normalized to DMSO control treated cells, and values were plotted in GraphPad Prism. […] Drug screens were performed in technical triplicate on each plate and either duplicate or triplicate biological replicates.

EGFR G719A = biological target: T3, EGFR G719A (Homo sapiens, UniProt P00533, G719A)
T3 construct: expressed in transfected cells; host or cells: Ba/F3

EGFR E709K G719S = biological target: T4, EGFR E709K G719S (Homo sapiens, UniProt P00533, E709K/G719S)
T4 construct: expressed in transfected cells; host or cells: Ba/F3
Method: as §1, §2, §3

EGFR L858R/C797S = biological target: T5, EGFR L858R/C797S (Homo sapiens, UniProt P00533, C797S/L858R)
T5 construct: expressed in transfected cells; host or cells: Ba/F3

EGFR L718Q = biological target: T6, EGFR L718Q (Homo sapiens, UniProt P00533, L718Q)
T6 construct: expressed in transfected cells; host or cells: Ba/F3

EGFR D761N = biological target: T7, EGFR D761N (Homo sapiens, UniProt P00533, D761N); conditions: Classical-Like, 72 hours
T7 construct: expressed in transfected cells; host or cells: Ba/F3 cells, retroviral pBabe-Puro vector
Method: (§4) Data represent the ratio of the IC50 value for a given TKI for cells with a classical-like EGFR mutation to the IC50 value for cells with wildtype EGFR.
as §2
(§5) After 48-72 hours of transduction, 2 μg/ml puromycin (Invitrogen) was added to Ba/F3 cell lines in complete RPMI. To select for EGFR positive cell lines, cells were stained with PE-EGFR (Biolegend) and sorted by FACS. After sorting, EGFR positive cells were maintained in RPMI containing 10% FBS, 1% penicillin/streptomycin, and 1 ng/ml EGF to support cell viability. […] Shortly, cells were plated in 384-well plates (Greiner Bio-One) at 2000-3000 cells per well in technical triplicate. Seven different concentrations of TKIs or DMSO vehicle were added to reach a final volume of 40 μL per well. After 72 hours, 11 μL of Cell Titer Glo (Promega) was added to each well. Plates were incubated for a minimum of 10 minutes, and bioluminescence was determined using a FLUOstar OPTIMA plate reader (BMG LABTECH). Raw bioluminescence values were normalized to DMSO control treated cells, and values were plotted in GraphPad Prism. […] Drug screens were performed in technical triplicate on each plate and either duplicate or triplicate biological replicates.

EGFR L858R/L792H = biological target: T8, EGFR L858R/L792H (Homo sapiens, UniProt P00533, L792H/L858R)
T8 construct: expressed in transfected cells; host or cells: Ba/F3
Method: as §1, §2, §3

EGFR G719A/R776C = biological target: T9, EGFR G719A/R776C (Homo sapiens, UniProt P00533, G719A/R776C)
T9 construct: expressed in transfected cells; host or cells: Ba/F3

EGFR L858R G724S = biological target: T10, EGFR L858R G724S (Homo sapiens, UniProt P00533, G724S/L858R)
T10 construct: expressed in transfected cells; host or cells: Ba/F3 (retroviral transduction, pBabe-Puro based vectors)

EGFR G719A L861Q = biological target: T11, EGFR G719A L861Q (Homo sapiens, UniProt P00533, G719A/L861Q)
T11 construct: expressed in transfected cells; host or cells: Ba/F3
Method: as §1, §2, §3

EGFR L833V = biological target: T12, EGFR L833V (Homo sapiens, UniProt P00533, L833V); conditions: Classical-Like, 72 hours
T12 construct: expressed in transfected cells; host or cells: Ba/F3 cells, retroviral pBabe-Puro vector
Method: as §4, §2, §5

EGFR Ex19del/L792H = biological target: T13, EGFR Ex19del/L792H (Homo sapiens, UniProt P00533, DEL746-750/L792H)
T13 construct: expressed in transfected cells; host or cells: Ba/F3

EGFR L858R T790M V843I = biological target: T14, EGFR L858R T790M V843I (Homo sapiens, UniProt P00533, L858R/T790M/V843I); conditions: T790M-like-3S, 72 hours
T14 construct: expressed in transfected cells; host or cells: Ba/F3

EGFR Ex19del = biological target: T15, EGFR Ex19del (Homo sapiens, UniProt P00533, DEL746-750); conditions: Classical-Like, 72 hours
T15 construct: expressed in transfected cells; host or cells: Ba/F3 cells, retroviral pBabe-Puro vector

EGFR E709K = biological target: T16, EGFR E709K (Homo sapiens, UniProt P00533, E709K)
T16 construct: expressed in transfected cells; host or cells: Ba/F3
Method: as §1, §2, §3

EGFR E709_T710del insD = biological target: T17, EGFR E709_T710del insD (Homo sapiens, UniProt P00533, DEL709-709/T710D)
T17 construct: expressed in transfected cells; host or cells: Ba/F3

EGFR L858R T790M L718V = biological target: T18, EGFR L858R T790M L718V (Homo sapiens, UniProt P00533, L718V/L858R/T790M); conditions: T790M-like-3R, 72 hours
T18 construct: expressed in transfected cells; host or cells: Ba/F3

EGFR S768dupSVD V769M = biological target: T19, EGFR S768dupSVD V769M (Homo sapiens, UniProt P00533, INS768MDS/V769M); conditions: Ex20, 72 hours
T19 construct: expressed in transfected cells; host or cells: Ba/F3 cells, retroviral pBabe-Puro vector (vector made by GeneScript from EGFR S768dupSVD, c.2305G > A)
Method: Data represent the ratio of the IC50 value for a given TKI for cells with an ex20ins EGFR mutation to the IC50 value for cells with wildtype EGFR.
as §2
After 48-72 hours of transduction, 2 μg/ml puromycin (Invitrogen) was added to Ba/F3 cell lines in complete RPMI. To select for EGFR positive cell lines, cells were stained with PE-EGFR (Biolegend) and sorted by FACS. After sorting, EGFR positive cells were maintained in RPMI containing 10% FBS, 1% penicillin/streptomycin, and 1 ng/ml EGF to support cell viability. Drug screening was performed as previously described^41,42. Shortly, cells were plated in 384-well plates (Greiner Bio-One) at 2000-3000 cells per well in technical triplicate. Seven different concentrations of TKIs or DMSO vehicle were added to reach a final volume of 40 μL per well. After 72 hours, 11 μL of Cell Titer Glo (Promega) was added to each well. Plates were incubated for a minimum of 10 minutes, and bioluminescence was determined using a FLUOstar OPTIMA plate reader (BMG LABTECH). Raw bioluminescence values were normalized to DMSO control treated cells, and values were plotted in GraphPad Prism. […] Drug screens were performed in technical triplicate on each plate and either duplicate or triplicate biological replicates. […] Statistical differences between groups were determined by ANOVA as described in the figure legends.

EGFR G724S T790M = biological target: T20, EGFR G724S T790M (Homo sapiens, UniProt P00533, G724S/T790M); conditions: T790M-like-3R, 72 hours
T20 construct: expressed in transfected cells; host or cells: Ba/F3
Method: Data represent the ratio of the IC50 value for a given TKI for cells with a T790M-like-3R EGFR mutation to the IC50 value for cells with wildtype EGFR.
as §2
After 48-72 hours of transduction, 2 μg/ml puromycin (Invitrogen) was added to Ba/F3 cell lines in complete RPMI. To select for EGFR positive cell lines, cells were stained with PE-EGFR (Biolegend) and sorted by FACS. After sorting, EGFR positive cells were maintained in RPMI containing 10% FBS, 1% penicillin/streptomycin, and 1 ng/ml EGF to support cell viability. […] Shortly, cells were plated in 384-well plates (Greiner Bio-One) at 2000-3000 cells per well in technical triplicate. Seven different concentrations of TKIs or DMSO vehicle were added to reach a final volume of 40 μL per well. After 72 hours, 11 μL of Cell Titer Glo (Promega) was added to each well. Plates were incubated for a minimum of 10 minutes, and bioluminescence was determined using a FLUOstar OPTIMA plate reader (BMG LABTECH). Raw bioluminescence values were normalized to DMSO control treated cells, and values were plotted in GraphPad Prism. […] Drug screens were performed in technical triplicate on each plate and either duplicate or triplicate biological replicates. […] Statistical differences between groups were determined by ANOVA as described in the figure legends.

EGFR A763insLQEA = biological target: T21, EGFR A763insLQEA (Homo sapiens, UniProt P00533, INS763LQEA); conditions: Classical-Like, 72 hours
T21 construct: expressed in transfected cells; host or cells: Ba/F3 cells, retroviral pBabe-Puro vector

EGFR K754E = biological target: T22, EGFR K754E (Homo sapiens, UniProt P00533, K754E); conditions: Classical-Like, 72 hours
T22 construct: expressed in transfected cells; host or cells: Ba/F3 cells, retroviral pBabe-Puro vector

EGFR L718V = biological target: T23, EGFR L718V (Homo sapiens, UniProt P00533, L718V)
T23 construct: expressed in transfected cells; host or cells: Ba/F3
Method: as §1, §2, §3

ratio of IC50 for cells with mutant EGFR to IC50 for cells with wildtype EGFR (Mut/WT) (EGFR K757R; PACC, K757R, Ba/F3, 72 hours): 0.7085
ratio of IC50 for cells with mutant EGFR to IC50 for cells with wildtype EGFR (Mut/WT) (EGFR G719S; PACC, G719S, Ba/F3, 72 hours): 0.01105
ratio of IC50 for cells with mutant EGFR to IC50 for cells with wildtype EGFR (Mut/WT) (EGFR G719A; PACC, G719A, Ba/F3, 72 hours): 0.1002
ratio of IC50 for cells with mutant EGFR to IC50 for cells with wildtype EGFR (Mut/WT) (EGFR E709K G719S; PACC, E709K G719S, Ba/F3, 72 hours): 0.3636
ratio of IC50 for cells with mutant EGFR to IC50 for cells with wildtype EGFR (Mut/WT) (EGFR L858R/C797S; PACC, L858R/C797S, Ba/F3, 72 hours): 0.001895
ratio of IC50 for cells with mutant EGFR to IC50 for cells with wildtype EGFR (Mut/WT) (EGFR L718Q; PACC, L718Q, Ba/F3, 72 hours): 1.696
ratio of IC50 for cells with mutant EGFR to IC50 for cells with wildtype EGFR (Mut/WT) (EGFR D761N): 0.6757
ratio of IC50 for cells with mutant EGFR to IC50 for cells with wildtype EGFR (Mut/WT) (EGFR L858R/L792H; PACC, L858R/L792H, Ba/F3, 72 hours): 0.03125
ratio of IC50 for cells with mutant EGFR to IC50 for cells with wildtype EGFR (Mut/WT) (EGFR G719A/R776C; PACC, G719A/R776C, Ba/F3, 72 hours): 0.2006
ratio of IC50 for cells with mutant EGFR to IC50 for cells with wildtype EGFR (Mut/WT) (EGFR L858R G724S; PACC, L858R G724S, Ba/F3, 72 hours): 0.0005419
ratio of IC50 for cells with mutant EGFR to IC50 for cells with wildtype EGFR (Mut/WT) (EGFR G719A L861Q; PACC, G719A L861Q, Ba/F3, 72 hours): 0.07458
ratio of IC50 for cells with mutant EGFR to IC50 for cells with wildtype EGFR (Mut/WT) (EGFR L833V): 0.1488
ratio of IC50 for cells with mutant EGFR to IC50 for cells with wildtype EGFR (Mut/WT) (EGFR Ex19del/L792H; PACC, Ex19del/L792H, Ba/F3, 72 hours): 9.625
ratio of IC50 for cells with mutant EGFR to IC50 for cells with wildtype EGFR (Mut/WT) (EGFR L858R T790M V843I): 9.625
ratio of IC50 for cells with mutant EGFR to IC50 for cells with wildtype EGFR (Mut/WT) (EGFR Ex19del): 0.0001195
ratio of IC50 for cells with mutant EGFR to IC50 for cells with wildtype EGFR (Mut/WT) (EGFR E709K; PACC, E709K, Ba/F3, 72 hours): 0.3129
ratio of IC50 for cells with mutant EGFR to IC50 for cells with wildtype EGFR (Mut/WT) (EGFR E709_T710del insD; PACC, E709_T710del insD, Ba/F3, 72 hours): 0.2123
ratio of IC50 for cells with mutant EGFR to IC50 for cells with wildtype EGFR (Mut/WT) (EGFR L858R T790M L718V): 4.812
ratio of IC50 for cells with mutant EGFR to IC50 for cells with wildtype EGFR (Mut/WT) (EGFR S768dupSVD V769M): 1.659
ratio of IC50 for cells with mutant EGFR to IC50 for cells with wildtype EGFR (Mut/WT) (EGFR G724S T790M): 7.7
ratio of IC50 for cells with mutant EGFR to IC50 for cells with wildtype EGFR (Mut/WT) (EGFR A763insLQEA): 0.02905
ratio of IC50 for cells with mutant EGFR to IC50 for cells with wildtype EGFR (Mut/WT) (EGFR K754E): 0.04651
ratio of IC50 for cells with mutant EGFR to IC50 for cells with wildtype EGFR (Mut/WT) (EGFR L718V; PACC, L718V, Ba/F3, 72 hours): 0.6898
SMILES: COc1cc2ncnc(Nc3cccc(Cl)c3F)c2cc1OC(=O)N1CCN(C)C[C@H]1C [AZD3759]

ratio of the IC50 value for cells with a PACC EGFR mutation to the IC50 value for cells with wildtype EGFR (EGFR K757R; Ba/F3 cells, EGFR K757R (PACC), Mut/WT): 0.349
ratio of the IC50 value for cells with a PACC EGFR mutation to the IC50 value for cells with wildtype EGFR (EGFR G719S; Ba/F3 cells, EGFR G719S (PACC), Mut/WT): 0.1555
ratio of the IC50 value for cells with a PACC EGFR mutation to the IC50 value for cells with wildtype EGFR (EGFR G719A; Ba/F3 cells, EGFR G719A (PACC), Mut/WT): 0.362
ratio of the IC50 value for cells with a PACC EGFR mutation to the IC50 value for cells with wildtype EGFR (EGFR E709K G719S; Ba/F3 cells, EGFR E709K G719S (PACC), Mut/WT): 0.2652
ratio of the IC50 value for cells with a PACC EGFR mutation to the IC50 value for cells with wildtype EGFR (EGFR L858R/C797S; Ba/F3 cells, EGFR L858R/C797S (PACC), Mut/WT): 28.05
ratio of the IC50 value for cells with a PACC EGFR mutation to the IC50 value for cells with wildtype EGFR (EGFR L718Q; Ba/F3 cells, EGFR L718Q (PACC), Mut/WT): 5.442
ratio of IC50 for cells with mutant EGFR to IC50 for cells with wildtype EGFR (Mut/WT) (EGFR D761N): 0.01957
ratio of the IC50 value for cells with a PACC EGFR mutation to the IC50 value for cells with wildtype EGFR (EGFR L858R/L792H; Ba/F3 cells, EGFR L858R/L792H (PACC), Mut/WT): 0.1416
ratio of the IC50 value for cells with a PACC EGFR mutation to the IC50 value for cells with wildtype EGFR (EGFR G719A/R776C; Ba/F3 cells, EGFR G719A/R776C (PACC), Mut/WT): 0.5224
ratio of the IC50 value for cells with a PACC EGFR mutation to the IC50 value for cells with wildtype EGFR (EGFR L858R G724S; Ba/F3 cells, EGFR L858R G724S (PACC), Mut/WT): 0.0004647
ratio of the IC50 value for cells with a PACC EGFR mutation to the IC50 value for cells with wildtype EGFR (EGFR G719A L861Q; Ba/F3 cells, EGFR G719A L861Q (PACC), Mut/WT): 1.406
ratio of IC50 for cells with mutant EGFR to IC50 for cells with wildtype EGFR (Mut/WT) (EGFR L833V): 0.006132
ratio of the IC50 value for cells with a PACC EGFR mutation to the IC50 value for cells with wildtype EGFR (EGFR Ex19del/L792H; Ba/F3 cells, EGFR Ex19del/L792H (PACC), Mut/WT): 0.001792
ratio of IC50 for cells with mutant EGFR to IC50 for cells with wildtype EGFR (Mut/WT) (EGFR L858R T790M V843I): 0.06612
ratio of the IC50 value for cells with a PACC EGFR mutation to the IC50 value for cells with wildtype EGFR (EGFR E709K; Ba/F3 cells, EGFR E709K (PACC), Mut/WT): 0.2612
ratio of the IC50 value for cells with a PACC EGFR mutation to the IC50 value for cells with wildtype EGFR (EGFR E709_T710del insD; Ba/F3 cells, EGFR E709_T710del insD (PACC), Mut/WT): 0.5663
ratio of IC50 for cells with mutant EGFR to IC50 for cells with wildtype EGFR (Mut/WT) (EGFR L858R T790M L718V): 0.5404
ratio of IC50 for cells with mutant EGFR to IC50 for cells with wildtype EGFR (Mut/WT) (EGFR S768dupSVD V769M): 2.831
ratio of IC50 for cells with mutant EGFR to IC50 for cells with wildtype EGFR (Mut/WT) (EGFR G724S T790M): 26.17
ratio of IC50 for cells with mutant EGFR to IC50 for cells with wildtype EGFR (Mut/WT) (EGFR A763insLQEA): 0.1304
ratio of IC50 for cells with mutant EGFR to IC50 for cells with wildtype EGFR (Mut/WT) (EGFR K754E): 0.1385
ratio of the IC50 value for cells with a PACC EGFR mutation to the IC50 value for cells with wildtype EGFR (EGFR L718V; Ba/F3 cells, EGFR L718V (PACC), Mut/WT): 0.6184
SMILES: C=CC(=O)Nc1cc(Nc2nccc(-n3cc(CN(C)C)c(-c4ccccc4)n3)n2)c(OC)cc1N1CCOCC1 [Lazertinib]
